According to patent US11878013B2, “Isoquinoline derivative, preparing method thereof, and pharmaceutical composition for preventing or treating autophagy related diseases containing the same as an active ingredient” (Korea Research Institute of Chemical Technology, priority 2021, dated 2024):

Experiments:
hERG channel protein = target: T1, hERG channel protein (Homo sapiens, UniProt Q12809); test: hERG ligand binding test (fluorescence polarization); conditions: at 10 μM
T1 construct: expressed in transfected cells; host or cells: HEK-293
Protocol: In order to evaluate the possibility of inducing cardiotoxicity of the compound of Example 1 of the present invention in vivo, the inhibitory potential to the hERG (human ether-a-go-go related gene) K^+ channel protein, known as a main cause of arrhythmias, was tested.
First, a ligand binding test was performed to evaluate the binding force of the compound of Example 1 binding to the hERG channel protein in vitro. A biological membrane containing the hERG channel protein was aliquoted in a 384-black well plate (10 μl/well) at room temperature, and DMSO, E-4031 (positive control), and the compound of Example 1 prepared to be 4 times the final test concentration were added thereto (5 μl/well). A tracer material with a fluorescent material attached to astemizole, known as a selective binding substance to the hERG channel protein, was dispensed into a mixture of the two solutions (5 μl/well), and then incubated for 2 hours at room temperature where light was blocked. In order to excite the tracer material included in the reaction solution, the light of 530 nm was irradiated and the light of 585 nm returned back was measured by the polarization method. […] The binding force of the test material to the hERG protein was expressed as the inhibition rate (%) compared to the group treated with DMSO.

[1] = system: VERO, HFL-1, L929, NIH 3T3, CHO-K1 and HMV-II cell lines; test: Non-selective general cytotoxicity test; format: cell-based; conditions: all cell lines, 24 hours
Protocol: In this experiment, the cell lines derived from different species, VERO (African green monkey kidney cell line), HFL-1 (human embryonic lung cell line), L929 (mouse fibroblast cell line), NIH 3T3 (mouse embryonic fibroblast cell line), CHO-K1 (Chinese hamster ovary cell line) and HMV-II (human malignant melanoma cell line), were used.
Particularly, VERO, HFL-1, L929 and NIH 3T3 cell lines were cultured in DMEM, CHO-K1 was cultured in RPMI1640 medium, and HMV-II was cultured in DME/F-12 medium. 10% FBS (Fetal Bovine Serum) and 100 μg/mL of antibiotics were added to each medium. The cells were acclimatized and cultured in a humidified 37° C. 5% CO2 incubator, washed with PBS (phosphate buffer solution) at the time of growth that occupies 70-80% of the culture dish every 2-3 days, and then subcultured by treating with Trypsin-EDTA (Gibco, USA).
The cells used in this Experimental Example were aliquoted into a 96-well culture plate at the density of 15,000-25,000 cells/well, and then acclimatized and cultured in a humidified 37° C. […] The cell viability was measured according to the standard method using a Cyto XTM cell viability assay kit ([…]). […] 5% CO2 incubator, followed by measuring the absorbance at 450 nm. The survival rate was measured by calculating the ratio of the absorbance changed compared to the absorbance measured in the group treated with DMSO alone.

NO production = NO production in LPS-treated Raw 264.7 macrophages (Griess reagent); format: cell-based, mouse
Protocol: In order to confirm the effect of the compound of Example 1 of the present invention on NO production in Raw 264.7 mouse macrophages in which inflammatory response was induced by LPS, an experiment was performed as follows.
(§1) Raw 264.7 mouse macrophages were aliquoted in a 96-well plate at the density of 1×10^5 cells/well and stabilized in a 37° C., 5% CO2 incubator for 24 hours. The Raw 264.7 cells were treated with the compound of Example 1 by concentration. After 1 hour, the cells were treated with 1 ug/ml of LPS and cultured for 24 hours. For the measurement of NO production, 40 mg/ml of Griess reagent was prepared and it was mixed with the culture supernatant at the same ratio. The mixture was reacted at room temperature for 15 minutes, and absorbance was measured at 540 nm. Based on the results obtained therefrom, the cell viability and NO production rate were expressed as percentages in terms of LPS.

[2] = system: Raw 264.7 mouse macrophages; test: Cell viability of LPS-treated Raw 264.7 macrophages; format: cell-based
Protocol: as §1

[3] = system: artificial corneal tissue; test: Ocular toxicity test on artificial cornea (MTT); format: cell-based; conditions: up to 50 μM, the maximum concentration
Protocol: In order to evaluate the ocular toxicity that may be induced upon ocular exposure of the compound of Example 1 of the present invention, the following experiment was performed using the cultured artificial cornea.
The artificial corneal tissue cultured in agarose medium was transferred to a 12-well cell culture plate, to which culture medium was added, followed by culture in a humidified 37° C. 5% CO2 incubator for one day. The medium on the artificial cornea culture surface was eliminated, and 30 μl of the compound of Example 1 of the present invention diluted with PBS was evenly applied to the cornea surface, followed by incubation at room temperature for 30 minutes. The cell surface was washed twice with 10 ml of PBS, and a fresh culture medium was added, followed by incubation in a humidified 37° C. 5% CO2 incubator for 30 minutes. In order to measure the viability of the cornea, the artificial cornea was transferred to a 12-well plate containing 2 ml of MTT solution (1 mg/ml), followed by culture for 3 hours. The stained artificial corneal tissue was taken and transferred to a tube containing 1.5 ml of isopropanol, and then incubated with shaking to decolorize. The solution was centrifuged at 13,000 rpm for 5 minutes, 100 μl of the supernatant was transferred to each well of a 96-well plate, and absorbance was measured at 570 nm.

T1 sequence (Q12809 whole entry): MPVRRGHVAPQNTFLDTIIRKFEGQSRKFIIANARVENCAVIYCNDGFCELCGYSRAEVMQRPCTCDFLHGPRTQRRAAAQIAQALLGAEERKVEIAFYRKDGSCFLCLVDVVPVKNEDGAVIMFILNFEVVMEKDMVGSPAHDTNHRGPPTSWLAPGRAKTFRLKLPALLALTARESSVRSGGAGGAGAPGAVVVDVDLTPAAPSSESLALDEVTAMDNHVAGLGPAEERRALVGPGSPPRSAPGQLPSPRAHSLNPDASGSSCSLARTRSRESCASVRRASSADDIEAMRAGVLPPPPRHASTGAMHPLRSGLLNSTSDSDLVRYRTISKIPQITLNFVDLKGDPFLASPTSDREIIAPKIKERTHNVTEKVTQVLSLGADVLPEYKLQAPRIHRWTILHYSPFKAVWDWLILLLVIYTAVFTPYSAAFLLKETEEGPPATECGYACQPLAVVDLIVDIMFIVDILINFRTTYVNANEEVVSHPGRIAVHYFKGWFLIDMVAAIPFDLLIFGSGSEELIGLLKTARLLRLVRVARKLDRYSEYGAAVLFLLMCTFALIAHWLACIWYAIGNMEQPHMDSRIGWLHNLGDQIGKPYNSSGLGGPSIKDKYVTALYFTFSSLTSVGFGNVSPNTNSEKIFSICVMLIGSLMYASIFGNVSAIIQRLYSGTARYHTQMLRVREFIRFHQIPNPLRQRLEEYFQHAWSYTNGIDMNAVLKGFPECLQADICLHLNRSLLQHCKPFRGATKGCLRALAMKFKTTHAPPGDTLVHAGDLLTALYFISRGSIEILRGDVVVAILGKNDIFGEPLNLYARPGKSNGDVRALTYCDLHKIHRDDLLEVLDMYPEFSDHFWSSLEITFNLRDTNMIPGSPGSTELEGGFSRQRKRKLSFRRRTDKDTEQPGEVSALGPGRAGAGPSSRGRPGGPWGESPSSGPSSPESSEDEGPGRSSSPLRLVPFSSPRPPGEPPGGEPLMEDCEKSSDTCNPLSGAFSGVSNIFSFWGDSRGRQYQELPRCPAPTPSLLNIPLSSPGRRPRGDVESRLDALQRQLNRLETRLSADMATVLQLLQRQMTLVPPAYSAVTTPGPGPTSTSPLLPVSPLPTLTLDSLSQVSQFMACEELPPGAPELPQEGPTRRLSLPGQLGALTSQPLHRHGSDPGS

[O-][S+](c1ccc(F)cc1)c1nccc2ccccc12 (centres unmarked) [Example 1, 1-((4-Fluorophenyl)Sulfinyl)Isoquinoline]
inhibition of the binding of the hERG channel protein (hERG channel protein): about 10%
cytotoxicity ([1]; maximum test concentration of 100 μM): less than 50%
toxicity (cell viability) ([1]; up to 10 μM): no significant toxicity
NO production (% of control) (NO production; 1 ug/ml LPS, 24 hours, Raw 264.7 cells, test concentration not given): 40 % of control
NO production (NO production; LPS-treated Raw 264.7, 0.1, 0.5, 1, 10 and 100 μM, effect increased with concentration (FIG. 3)): inhibited
cytotoxicity ([2]; LPS-treated Raw 264.7, 0.1, 0.5, 1, 10 and 100 μM (FIG. 3)): no significant cytotoxicity
Cell viability (% of control) ([2]; LPS-treated Raw 264.7 cells, 24 hours, test concentration not given): 90 % of control
survival rate of artificial cornea [3]: no significant decrease of the survival rate
